Test results published in patent US8466129B2, “Method of preventing and treating airway remodeling and pulmonary inflammation using A2B adenosine receptor antagonists” (Gilead Sciences, Inc., priority 2004, dated 2013).
Entries after “also recorded” stand apart in the source; their conditions may differ.

Tests used:
[1] = tested on: ADA-deficient (ADA−/−) mice; assay: General health and lung histology (H&E) in the ADA-deficient mouse model of adenosine-dependent pulmonary injury; assay type: in vivo; conditions: 1 mg/kg ip twice daily for 17 days
From the text: The model system being used is the adenosine deaminase (ADA)-deficient mouse model of adenosine-dependent pulmonary injury. In this model, elevations in adenosine are associated with increased pulmonary inflammation and airway remodeling. Many of the features seen in these mice resemble those observed in patients with various forms of chronic lung disease including severe asthma, COPD and pulmonary fibrosis. The approach is to treat these mice with the A2B AR antagonist 3-ethyl-1-propyl-8-{1-[(3-trifluoromethylphenyl)methyl]pyrazol -4-yl}-1,3,7-trihydropurine-2,6-dione as a means to probe A2BAR contributions to pulmonary inflammation and injury in ADA-deficient mice, which should provide insight into the efficacy of this drug for the treatment of chronic lung diseases.
(§1) Mice treated by intraperitoneal (ip) injection twice daily with 1 mg/kg 3-ethyl-1-propyl -8-{1-[(3-trifluoromethylphenyl)methyl]pyrazol-4-yl}1,3,7-trihydropurine-2,6-dione. The specific protocol is as follows: ADA-deficient (ADA−/−) or ADA containing (ADA+) mice were identified at birth by screening of ADA enzymatic activity in the blood. ADA−/− mice were maintained on ADA enzyme therapy from postnatal day 2 until postnatal day 21. At this stage, treatments with 3-ethyl-1-propyl-8-{1-[(3-trifluoromethylphenyl)methyl] pyrazol -4-yl}-1,3,7-trihydropurine-2,6-dione or vehicle controls (corn oil/ethanol/DMSO) were initiated. Treatments consisted of an ip injection in the morning (8-9 AM) and in the evening (5-6 pm). Treatments were given daily for 17 days, and the experiment was terminated on postnatal day 38. Treatment groups included ADA−/− or ADA+mice receiving 3-ethyl-1-propyl-8-{1-[(3-trifluoromethylphenyl)methyl]pyrazol-4-yl}-1,3,7-trihydropurine-2,6-dione, vehicle, or no treatment. All mice were littermates and were therefore strain matched. Both males and females were included in these experiments. At the termination of the experiment, serum was collected for pharmacokinetics (PK) analysis of 3-ethyl-1-propyl -8-{1-[(3-trifluoromethylphenyl)methyl]pyrazol-4-yl}-1,3,7-trihydropurine -2,6-dione levels and various pulmonary endpoints were examined.
ADA-deficient mice were generated and genotyped as described (Blackburn et al. (1998) J Biol Chem 273:5093-5100 and Young et al. (2004) J. Immunol. 173:1380-1389. Mice homozygous for the null Ada allele were designated ADA-deficient (ADA^−/−), while mice heterozygous for the null Ada allele were designated as ADA control mice (ADA^+). All mice were on a mixed 129sv/C57BL/6J background and all phenotypic comparisons were performed amongst littermates. Animal care was in accordance with institutional and NIH guidelines. Mice were housed in ventilated cages equipped with microisolator lids and maintained under strict containment protocols. No evidence of bacterial, parasitic, or fungal infection was found, and serologies on cage littermates were negative for 12 of the most common murine viruses.
(§2) Mice were anesthetized with avertin, and lungs were lavaged four times with 0.3 ml PBS, and 0.95-1 ml of pooled lavage fluid was recovered. Total cell counts were determined using a hemocytometer, and aliquots were cytospun onto microscope slides and stained with Diff-Quick (Dade Nehring) for cellular differentials. Lungs were then infused with 4% paraformaldehyde in PBS at 25 cm of pressure and then fixed overnight at 4° C. Fixed lung samples were rinsed in PBS, dehydrated, and embedded in paraffin. Sections (5 μm) were collected on microscope slides and stained with hematoxylin and eosin (H&E; Shandon-Lipshaw) or Masson's trichrome (EM Science), according to manufacturer's instructions.

[2] = tested on: ADA-deficient (ADA−/−) mice; assay: Bronchiolalveolar lavage (BAL) cell counts and cellular differentials in ADA-deficient mice; assay type: in vivo, mouse; conditions: 1 mg/kg ip twice daily for 17 days
Procedure: as §1, §2

[3] = tested on: ADA-deficient (ADA−/−) mice; assay: Whole lung transcript levels by quantitative real-time RT-PCR in ADA-deficient mice; assay type: in vivo, mouse; conditions: 1 mg/kg ip twice daily for 17 days, vs vehicle-treated ADA−/− mice
Procedure: as §1
Mice were anesthetized and the lungs were rapidly removed and frozen in liquid nitrogen. RNA was isolated from frozen lung tissue using TRIzol Reagent (Life Technologies Inc., Grand Island, N.Y., USA). RNA samples were then DNase treated and subjected to quantitative real-time RT-PCR. The primers, probes and procedures for real-time RT-PCR were described previously in Sun et al. (2005) J Clin Invest 115:35-43. Reactions were carried out on a Smart Cycler rapid thermal cycler system (Cepheid, Sunnyvale, Calif.). Specific transcript levels were determined using Smart Cycler analysis software through comparison to a standard curve generated from the PCR amplification of template dilutions.

[4] = tested on: ADA-deficient (ADA−/−) mice; assay: Collagen deposition (Masson's trichrome) and soluble collagen (Sircol assay) in ADA-deficient mice; assay type: in vivo, mouse; conditions: 1 mg/kg ip twice daily for 17 days
Procedure: as §1
as §2, with “instructions. […]” for “instructions.”

[5] = tested on: ADA-deficient (ADA−/−) mice; assay: α-smooth muscle actin immunostaining of lung myofibroblasts in ADA-deficient mice; assay type: in vivo, mouse; conditions: 1 mg/kg ip twice daily for 17 days
Procedure: as §1, with “examined. […]” for “examined.”

[6] = tested on: ADA-deficient (ADA−/−) mice; assay: Alveolar airspace size (histology, mean chord length) in ADA-deficient mice; assay type: in vivo, mouse; conditions: 1 mg/kg ip twice daily for 17 days
Procedure: Mice treated by intraperitoneal (ip) injection twice daily with 1 mg/kg 3-ethyl-1-propyl -8-{1-[(3-trifluoromethylphenyl)methyl]pyrazol-4-yl}1,3,7-trihydropurine-2,6-dione. The specific protocol is as follows: ADA-deficient (ADA−/−) or ADA containing (ADA+) mice were identified at birth by screening of ADA enzymatic activity in the blood. ADA−/− mice were maintained on ADA enzyme therapy from postnatal day 2 until postnatal day 21. At this stage, treatments with 3-ethyl-1-propyl-8-{1-[(3-trifluoromethylphenyl)methyl] pyrazol -4-yl}-1,3,7-trihydropurine-2,6-dione or vehicle controls (corn oil/ethanol/DMSO) were initiated. […]
Mice were anesthetized with avertin, and lungs were lavaged four times with 0.3 ml PBS, and 0.95-1 ml of pooled lavage fluid was recovered. Total cell counts were determined using a hemocytometer, and aliquots were cytospun onto microscope slides and stained with Diff-Quick (Dade Nehring) for cellular differentials. […]
The size of alveolar airways was determined in pressure infused lungs by measuring mean chord lengths on H&E-stained lung sections (Blackburn et al. (2000) J Exp Med 192:159-170). […] This line grid was subtracted from the lung images using Image-Pro® Plus (Media Cybernetics) image analysis software, and the resultant lines were measured and averaged to give the mean chord length of the alveolar airways. […]

[7] = ADA−/− mice, vs vehicle-treated ADA−/− mice
[8] = listed as adenosine A2B receptor antagonist, 1 mg/kg

Structure (SMILES): CCCn1c(=O)c2[nH]c(-c3cnn(Cc4cccc(C(F)(F)F)c4)c3)nc2n(CC)c1=O [3-ethyl-1-propyl-8-(1-{[3-(trifluoromethyl)phenyl]methyl}pyrazol-4-yl)-1,3,7-trihydropurine-2,6-dione]
- alveolar airway simplification (H&E histology) ([1]; ADA+ control mice): not evident
- pulmonary inflammation (H&E histology) ([1]; ADA+ control mice): not evident
- pulmonary inflammation and airway destruction ([1]; ADA−/− mice): significant reduction
- alveolar airway simplification (H&E histology) [1, 7]: significant decrease
- pulmonary inflammation (H&E histology) [1, 7]: significant decrease
- outward signs of severe respiratory distress (rapid breathing and hunched posture) ([1]; ADA−/− mice, seen in vehicle-treated or untreated ADA−/− mice): not observed
- airway inflammation [2]: significant decrease
- alveolar macrophage activation (BAL cells) [2]: reduction
- alveolar macrophages in BAL [2]: reduction
- eosinophils in BAL [2]: reduction
- lymphocytes in BAL [2]: reduction
- neutrophils in BAL [2]: reduction
- number of total cells recovered from BAL ([2]; vs vehicle-treated ADA−/− mice): significant reduction
- Eotaxin I level, whole lung RNA [3]: significantly lower
- IL-4 level, whole lung RNA [3]: did not change
- IL-5 level, whole lung RNA [3]: did not change
- IL-6 level, whole lung RNA [3]: significantly lower
- MMP-9 expression, whole lung RNA [3]: diminished
- MMP-12 expression, whole lung RNA [3]: diminished
- RANTES level, whole lung RNA [3]: did not change
- TARC level, whole lung RNA [3]: significantly lower
- TIMP-1 expression, whole lung RNA [3]: diminished
- TNFα level, whole lung RNA [3]: did not change
- increase in collagen production: whole lung α1-procollagen transcript levels [3]: largely prevented
- monocyte chemoattractant proteins (MCPs) level, whole lung RNA [3]: did not change
- TGF-β1 expression (transcripts), whole lung [3, 8]: lower levels; also recorded: decreased
- osteopontin (OPN) expression (transcripts), whole lung [3, 8]: lower levels; also recorded: decreased
- plasminogen activator inhibitor-1 (PAI-1) expression (transcripts), whole lung [3, 8]: lower levels; also recorded: decreased
- collagen deposition in the lungs (Masson's trichrome) ([4]; ADA+ control mice): little to no
- collagen deposition in the airways (Masson's trichrome) ([4]; ADA−/− mice): reduction
- increase in collagen production: collagen protein levels in BAL fluid [4, 7]: largely prevented
- α-sma positive cells in the distal airways (myofibroblast accumulation) [5]: Few to no
- distal airway enlargement (histology) [6]: prevented
- distal airway size (mean cord length) [6]: agreed with the histological observations
